Legend:
Type in all cases: in vivo
[1] = system: duck salad (Heteranthera limosa); assay: Test C flooded paddy test; conditions: for Plant response rating, Ducksalad: flooded paddy test, scale 0 to 100 (0 no effect, 100 complete control)
In short: (§1)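 Each species was cultivated to 2 leaves in flooded paddy pots, then treated. After a greenhouse period of 12–14 days, the plants were scored visually relative to controls from 0 (no effect) to 100 (complete control).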

[2] = system: smallflower flatsedge (Cyperus difformis); assay: Test C flooded paddy test; conditions: for Plant response rating, Flatsedge: flooded paddy test, scale 0 to 100 (0 no effect, 100 complete control)
In short: as §1

[3] = system: barnyardgrass (Echinochloa crus-galli); assay: Test C flooded paddy test; conditions: for Barnyardgrass plant response rating: Flooded Paddy, scale 0 to 100, 0 no effect, 100 complete control; for Plant response rating, Barnyardgrass: flooded paddy test, scale 0 to 100 (0 no effect, 100 complete control)
In short: as §1

Nightshade = assay: Test C preemergence
[4] = system: Surinam grass (Brachiaria decumbens); assay: Test C preemergence; conditions: for Plant response rating (0 to 100), Surinam grass: visual evaluation after 12 to 14 days
In short: (§2)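 Pre- and postemergence treatments used a non-phytotoxic solvent/surfactant formulation; post-treated plants measured 2 to 18 cm. Greenhouse hold 12–14 d; % control estimated visually relative to controls.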

[5] = system: yellow nutsedge (Cyperus esculentus); assay: Test C preemergence
In short: as §2

[6] = system: pigweed (Amaranthus retroflexus); assay: Test C preemergence
In short: as §2

[7] = system: morningglory (Ipomoea hederacea); assay: Test C preemergence
In short: as §2

kochia (Kochia scoparia) = assay: Test C preemergence; conditions: for Plant response rating (0 to 100), Kochia: visual evaluation after 12 to 14 days
In short: as §2

corn (Zea mays) = assay: Test C preemergence; conditions: for Plant response rating (0 to 100), Corn: visual evaluation after 12 to 14 days
In short: as §2

[8] = system: giant foxtail (Setaria faberii); assay: Test C preemergence; conditions: for Plant response rating (0 to 100), Foxtail, Giant: visual evaluation after 12 to 14 days
In short: as §2

[9] = system: bermudagrass (Cynodon dactylon); assay: Test C preemergence; conditions: for Plant response rating (0 to 100 where 0 is no effect and 100 is complete control), Bermudagrass: visual evaluation after 12 to 14 days
In short: as §2

[10] = system: johnsongrass (Sorghum halepense); assay: Test C preemergence; conditions: for Plant response rating (0 to 100), Johnsongrass: visual evaluation after 12 to 14 days
In short: as §2

Sunflower [11] = assay: Test C preemergence; conditions: Rate 125 g/ha; scale 0 to 100, 0 no effect, 100 complete control
soybean (Glycine max) = assay: Test C preemergence
In short: as §2

[12] = system: cocklebur (Xanthium strumarium); assay: Test C preemergence; conditions: for Plant response rating (0 to 100), Cocklebur: visual evaluation after 12 to 14 days
In short: as §2

[13] = system: lambsquarters (Chenopodium album); assay: Test C preemergence
In short: as §2

[14] = system: goosegrass (Eleusine indica); assay: Test C preemergence; conditions: for Plant response rating (0 to 100), Goosegrass: visual evaluation after 12 to 14 days
In short: as §2

[15] = system: woolly cupgrass (Eriochloa villosa); assay: Test C preemergence; conditions: for Plant response rating (0 to 100), Cupgrass, Woolly: visual evaluation after 12 to 14 days
In short: as §2

[16] = system: crabgrass (Digitaria sanguinalis); assay: Test C preemergence; conditions: for Plant response rating (0 to 100), Crabgrass: visual evaluation after 12 to 14 days
In short: as §2

[17] = system: velvetleaf (Abutilon theophrasti); assay: Test C preemergence
In short: as §2

Sunflower [18] = assay: Test C preemergence; conditions: Rate 500 g/ha, visual evaluation after 12 to 14 days
[19] = Flooded Paddy, Rate 250 g/ha, scale 0 to 100, 0 no effect, 100 complete control
[20] = Rate 125 g/ha, scale 0 to 100, 0 no effect, 100 complete control
[21] = preemergence, Rate 62 g/ha, scale 0 to 100
[22] = preemergence, Rate 500 g/ha, visual evaluation after 12 to 14 days
[23] = preemergence, Rate 250 g/ha, scale 0 to 100, 0 no effect, 100 complete control

## CSc1cccc(N2CCC(n3ccc(C(C)(C)C)n3)C2=O)c1 (stereo not drawn) [Compound 86]
[1]; [19]
  Ducksalad plant response rating: 100
[1]; Rate 62 g/ha
  Plant response rating, Ducksalad: 0
[1]; Rate 125 g/ha
  Plant response rating, Ducksalad: 0
[2]; [19]
  Flatsedge plant response rating: 70
[2]; Rate 62 g/ha
  Plant response rating, Flatsedge: 0
[2]; Rate 125 g/ha
  Plant response rating, Flatsedge: 0
[3]; Rate 250 g/ha
  Barnyardgrass plant response rating: 100
[3]; Rate 500 g/ha
  Barnyardgrass plant response rating: 100
[3]; Rate 62 g/ha
  Plant response rating, Barnyardgrass: 0
[3]; Rate 125 g/ha
  Plant response rating, Barnyardgrass: 30
Nightshade; Rate 62 g/ha, scale 0 to 100
  Plant response rating, Nightshade: 0
Nightshade; [20]
  Plant response rating, Nightshade: 0
Nightshade; Rate 250 g/ha, scale 0 to 100, 0 no effect, 100 complete control
  Plant response rating, Nightshade: 0
[4]; [20]
  Plant response rating, Surinam grass: 20
[4]; [21]
  Plant response rating, Surinam grass: 20
[4]; preemergence, Rate 250 g/ha
  Plant response rating (0 to 100), Surinam grass: 20
[4]; preemergence, Rate 500 g/ha
  Plant response rating (0 to 100), Surinam grass: 30
[5]; [20]
  Plant response rating, Nutsedge: 0
[5]; [21]
  Plant response rating, Nutsedge: 0
[5]; [22]
  Plant response rating (0 to 100), Nutsedge: 0
[5]; [23]
  Plant response rating, Nutsedge: 0
[6]; [20]
  Plant response rating, Pigweed: 100
[6]; [21]
  Plant response rating, Pigweed: 70
[6]; [22]
  Plant response rating (0 to 100), Pigweed: 100
[6]; [23]
  Plant response rating, Pigweed: 0
[7]; [20]
  Plant response rating, Morningglory: 0
[7]; [21]
  Plant response rating, Morningglory: 0
[7]; [23]
  Plant response rating, Morningglory: 0
Kochia (Kochia scoparia); [20]
  Plant response rating, Kochia: 90
Kochia (Kochia scoparia); [21]
  Plant response rating, Kochia: 70
Kochia (Kochia scoparia); preemergence, Rate 250 g/ha
  Plant response rating (0 to 100), Kochia: 100
Kochia (Kochia scoparia); preemergence, Rate 500 g/ha
  Plant response rating (0 to 100), Kochia: 100
Corn (Zea mays); [20]
  Plant response rating, Corn: 0
Corn (Zea mays); [21]
  Plant response rating, Corn: 0
Corn (Zea mays); preemergence, Rate 250 g/ha
  Plant response rating (0 to 100), Corn: 0
Corn (Zea mays); preemergence, Rate 500 g/ha
  Plant response rating (0 to 100), Corn: 30
[8]; [20]
  Plant response rating, Foxtail, Giant: 0
[8]; [21]
  Plant response rating, Foxtail, Giant: 0
[8]; preemergence, Rate 250 g/ha
  Plant response rating (0 to 100), Foxtail, Giant: 80
[8]; preemergence, Rate 500 g/ha
  Plant response rating (0 to 100), Foxtail, Giant: 100
[9]; [20]
  Plant response rating, Bermudagrass: 30
[9]; [21]
  Plant response rating, Bermudagrass: 10
[9]; preemergence, Rate 250 g/ha
  Plant response rating (0 to 100 where 0 is no effect and 100 is complete control), Bermudagrass: 90
[9]; preemergence, Rate 500 g/ha
  Plant response rating (0 to 100 where 0 is no effect and 100 is complete control), Bermudagrass: 100
[10]; [20]
  Plant response rating, Johnsongrass: 20
[10]; [21]
  Plant response rating, Johnsongrass: 20
[10]; preemergence, Rate 250 g/ha
  Plant response rating (0 to 100), Johnsongrass: 40
[10]; preemergence, Rate 500 g/ha
  Plant response rating (0 to 100), Johnsongrass: 50
Sunflower [11]
  Plant response rating, Sunflower: 20
Soybean (Glycine max); [20]
  Plant response rating, Soybean: 0
Soybean (Glycine max); [21]
  Plant response rating, Soybean: 0
Soybean (Glycine max); [22]
  Plant response rating (0 to 100), Soybean: 0
Soybean (Glycine max); [23]
  Plant response rating, Soybean: 0
[12]; [20]
  Plant response rating, Cocklebur: 0
[12]; [21]
  Plant response rating, Cocklebur: 0
[12]; preemergence, Rate 250 g/ha
  Plant response rating (0 to 100), Cocklebur: 0
[12]; preemergence, Rate 500 g/ha
  Plant response rating (0 to 100), Cocklebur: 0
[13]; [20]
  Plant response rating, Lambsquarters: 100
[13]; [21]
  Plant response rating, Lambsquarters: 100
[13]; [22]
  Plant response rating (0 to 100), Lambsquarters: 100
[13]; [23]
  Plant response rating, Lambsquarters: 100
[14]; [20]
  Plant response rating, Goosegrass: 90
[14]; [21]
  Plant response rating, Goosegrass: 100
[14]; preemergence, Rate 250 g/ha
  Plant response rating (0 to 100), Goosegrass: 100
[14]; preemergence, Rate 500 g/ha
  Plant response rating (0 to 100), Goosegrass: 100
[15]; [20]
  Plant response rating, Cupgrass, Woolly: 30
[15]; [21]
  Plant response rating, Cupgrass, Woolly: 30
[15]; preemergence, Rate 250 g/ha
  Plant response rating (0 to 100), Cupgrass, Woolly: 90
[15]; preemergence, Rate 500 g/ha
  Plant response rating (0 to 100), Cupgrass, Woolly: 100
[16]; [20]
  Plant response rating, Crabgrass: 90
[16]; [21]
  Plant response rating, Crabgrass: 0
[16]; preemergence, Rate 250 g/ha
  Plant response rating (0 to 100), Crabgrass: 100
[16]; preemergence, Rate 500 g/ha
  Plant response rating (0 to 100), Crabgrass: 100
[17]; [20]
  Plant response rating, Velvetleaf: 0
[17]; [21]
  Plant response rating, Velvetleaf: 0
[17]; [22]
  Plant response rating (0 to 100), Velvetleaf: 70
[17]; [23]
  Plant response rating, Velvetleaf: 0
Sunflower [18]
  Plant response rating (0 to 100), Sunflower: 20

Source: US7138361B2, “Herbicidal heterocycles” (E. I. du Pont de Nemours and Company, priority 2000, dated 2006)
